Data on seven molecules can be found in US5106854A, “Quinolinecarboxylic acids” (Shionogi & Co., Ltd., priority 1988, dated 1992).

In brackets after ≈: the same amount, converted by molar mass. Counter-ions that a name gives are not always drawn.

Format in all cases: cell-based
Assay [1] relates to Staphylococcus aureus SMITH. Kind of assay: Antibacterial spectrum, minimum growth inhibitory concentration (MIC), strain A. Conditions: 10^6 cells/ml, Japan Society of Chemotherapy method. On the procedure: The antibacterial activity was determined by measuring minimum growth inhibitory concentrations (MICs) in accordance with the method designated by the Japan Society of Chemotherapy. A, B, C and D in the table indicate the following meanings: A: Staphylococcus aureus SMITH The test microorganisms were used at 10^6 cells/ml.

In assay [2] the test system is Escherichia coli SR377 (R). Briefly: Antibacterial spectrum, minimum growth inhibitory concentration (MIC), strain D. As to conditions: 10^6 cells/ml, Japan Society of Chemotherapy method. On the procedure:
The antibacterial activity was determined by measuring minimum growth inhibitory concentrations (MICs) in accordance with the method designated by the Japan Society of Chemotherapy. A, B, C and D in the table indicate the following meanings: D: Escherichia coli SR377 (R). The test microorganisms were used at 10^6 cells/ml.

The subject of assay [3] is Staphylococcus aureus SR 14 (R). Briefly: Antibacterial spectrum, minimum growth inhibitory concentration (MIC), strain B. Conditions: 10^6 cells/ml, Japan Society of Chemotherapy method. On the procedure:
The antibacterial activity was determined by measuring minimum growth inhibitory concentrations (MICs) in accordance with the method designated by the Japan Society of Chemotherapy.
A, B, C and D in the table indicate the following meanings:
B: Staphylococcus aureus SR 14 (R)
The test microorganisms were used at 10^6 cells/ml.

In another assay the test system is Escherichia coli EC-14. Kind of assay: Antibacterial spectrum, minimum growth inhibitory concentration (MIC), strain C. As to conditions: EC14, 10^6 cells/ml, Japan Society of Chemotherapy method. On the procedure:
The antibacterial activity was determined by measuring minimum growth inhibitory concentrations (MICs) in accordance with the method designated by the Japan Society of Chemotherapy. A, B, C and D in the table indicate the following meanings: C: Escherichia coli EC-14 The test microorganisms were used at 10^6 cells/ml.

Usually MIC stands for the smallest concentration in the dilution series that meets the test's criterion for growth inhibition. A high value points to a less susceptible organism.

Consider `CO[C@H]1CN(c2c(F)c(N)c3c(=O)c(C(=O)O)cn(C4CC4)c3c2F)C[C@H]1N` (relative stereo) [Compound I-5, 1-Cyclopropyl-5-amino-6,8-difluoro-1,4-dihydro-7-(cis-3-amino-4-methoxy-1-pyrrolidinyl)-4-oxo-3-quinolinecarboxylic acid], for which the MIC in assay [1] worked out at 0.02 mg/L (≈ 0.0507 µM); in assay [2], 0.05 mg/L (≈ 0.127 µM); in assay [3] it was 0.05 mg/L (≈ 0.127 µM); against Escherichia coli EC-14, 0.02 mg/L (≈ 0.0507 µM).
On to `CN[C@@H]1CN(c2c(F)c(N)c3c(=O)c(C(=O)O)cn(C4CC4)c3c2F)C[C@@H]1OC` (relative stereo) [Compound I-11, 1-Cyclopropyl-5-amino-6,8-difluoro-1,4-dihydro-7-(cis-3-methylamino-4-methoxy-1-pyrrolidinyl)-4-oxo-3-quinolinecarboxylic acid], for which the MIC was 0.05 mg/L (≈ 0.122 µM) in assay [1], 0.1 mg/L (≈ 0.245 µM) in assay [2], 0.05 mg/L (≈ 0.122 µM) in assay [3] and 0.05 mg/L (≈ 0.122 µM) against Escherichia coli EC-14.
In the case of `CN[C@H]1CN(c2c(F)c(N)c3c(=O)c(C(=O)O)cn(C4CC4)c3c2F)C[C@H]1OC` [Compound I-1, (+)-1-Cyclopropyl-5-amino-6,8-difluoro-1,4-dihydro-7-(cis-3-methylamino-4-methoxy-1-pyrrolidinyl)-4-oxo-3-quinolinecarboxylic acid hydrochloride], the MIC in assay [1] stood at 0.1 mg/L; in assay [2], 0.2 mg/L; in assay [3], 0.1 mg/L; in the assay on Escherichia coli EC-14 it was 0.1 mg/L.
With `CN[C@@H]1CN(c2c(F)c(N)c3c(=O)c(C(=O)O)cn(C4CC4)c3c2F)C[C@@H]1OC.Cl` [Compound I-2, (-)-1-Cyclopropyl-5-amino-6,8-difluoro-1,4-dihydro-7-(cis-3-methylamino-4-methoxy-1-pyrrolidinyl)-4-oxo-3-quinolinecarboxylic acid hydrochloride], the MIC was found to be 0.05 mg/L in assay [1], 0.1 mg/L in assay [2], 0.05 mg/L in assay [3] and 0.05 mg/L in the assay with Escherichia coli EC-14.
As for `CO[C@@H]1CN(c2c(F)c(N)c3c(=O)c(C(=O)O)cn(C4CC4)c3c2F)C[C@@H]1N` [Compound I-3, (+)-1-Cyclopropyl-5-amino-6,8-difluoro-1,4-dihydro-7-(cis-3-amino-4-methoxy-1-pyrrolidinyl)-4-oxo-3-quinolinecarboxylic acid hydrochloride], the MIC in assay [1] was 0.05 mg/L; in assay [2] it was 0.1 mg/L; in assay [3] it was 0.05 mg/L; with Escherichia coli EC-14, 0.02 mg/L.
On to `CO[C@H]1CN(c2c(F)c(N)c3c(=O)c(C(=O)O)cn(C4CC4)c3c2F)C[C@H]1N` [Compound I-4, (-)-1-Cyclopropyl-5-amino-6,8-difluoro-1,4-dihydro-7-(cis-3-amino-4-methoxy-1-pyrrolidinyl)-4-oxo-3-quinolinecarbxylic acid hydrochloride], for which the MIC in assay [1] is 0.02 mg/L; in assay [2] it was 0.05 mg/L; in assay [3], 0.02 mg/L; against Escherichia coli EC-14 it was 0.02 mg/L.
Turning to `CC1COc2c(N3CCN(C)CC3)c(F)cc3c(=O)c(C(=O)O)cn1c23` (stereo not shown) [OFLX, ofloxacin, reference compound], the MIC in assay [1] amounted to 0.2 mg/L (≈ 0.553 µM); in assay [2], 0.1 mg/L (≈ 0.277 µM); in assay [3], 0.4 mg/L (≈ 1.11 µM); in the assay with Escherichia coli EC-14, 0.1 mg/L (≈ 0.277 µM).
